# Experimental data published in patent US20200277571A1, “METHOD FOR AMPLIFYING CONE PHOTORECEPTORS OR ROD PHOTORECEPTORS USING DORSALIZATION SIGNAL TRANSMITTER OR VENTRALIZATION SIGNAL TRANSMITTER” (RIKEN, priority 2017, published 2020).
# Legend:
# [1] = tested on: cone photoreceptor precursor and rod photoreceptor precursor in retinal tissue produced from human ES cells; test: Immunostaining for GFP (CRX::Venus), RXR-γ and NRL of retinal tissue, day 191-192, image analysis; type: cell-based; conditions: for proportion of rod photoreceptor precursor (Rod-like; NRL-positive) / proportion of cone photoreceptor precursor (Cone; RXR-γ-positive and NRL-negative): day 191-192, 100 nM LDN193189 or 100 nM SAG day 22 to day 100; for proportion of rod photoreceptor precursor (Rod-like; NRL-positive) / proportion of cone photoreceptor precursor (Cone; RXR-γ-positive and NRL-negative) / proportion of NRL-positive rod photoreceptor precursor among photoreceptor precursors versus Control group: 0.15 nM BMP4, 500 nM Cyclopamine-KAAD; for proportion of rod photoreceptor precursor (Rod-like; NRL-positive): Control (NUC) about 12.8%; for proportion of cone photoreceptor precursor (Cone; RXR-γ-positive and NRL-negative): Control (NUC) about 22.7%; for proportion of NRL-positive rod photoreceptor precursor among photoreceptor precursors versus Control group: 100 nM LDN193189, 100 nM SAG day 22 to day 100; for proportion of RXR-γ-positive cone photoreceptor precursor among photoreceptor precursors versus Control group: 500 nM Cyclopamine-KAAD or 100 nM SAG day 22 to day 100
# Protocol: A cell aggregate containing a retinal tissue was prepared by the method described in “Kuwahara et al. Nat Commun 2015, 19(6), 6286-” after modification in part. That is, the aforementioned cultured ES cells were individually dispersed using TrypLE Express (Invitrogen), and the individually dispersed human ES cells were suspended in 100 μL of a serum-free medium in a cell non-adhesive 96 well plate (SUMILON spheroid plate, SUMITOMO BAKELITE CO., LTD.) at 9×10^3 cells per well to allow rapid formation of aggregates, after which they were cultured at 37° C., 5% CO2. As the serum-free medium therefor, a serum-free medium obtained by adding 10% KSR, 450 μM 1-monothioglycerol, 1× Chemically defined lipid concentrate, 5 mg/mL BSA, 20 μM Y27632 to a 1:1 mixture of F-12 medium and IMDM medium was used. At 6 days after the start of suspension culture, BMP4 at a final concentration of 1.5 nM was added and suspension culture was continued. A half amount of the culture medium in the well was exchanged with the above-mentioned medium not supplemented with a BMP signal transduction pathway agonist every 3 or 4 days. A cell aggregate containing a retinal tissue at day 18 from the start of suspension culture was cultured in suspension in a serum-free medium (DMEM/F12 medium supplemented with 1% N2 supplement) containing 3 μM CHIR99021 and 5 μM SU5402 for 4 days, namely, up to day 22 from the start of suspension culture. Thereafter, suspension culture of the cell aggregate containing the retinal tissue was continued until it was appropriately used for analysis and the like. As the culture medium during this period, serum-containing media shown in the following to [3] were used and the cell aggregate was cultured under 5% CO2 conditions.
# [1] day 22 to day 38 from the start of suspension culture; DMEM/F12 medium supplemented with 10% fetal calf serum, 1% N2 supplement, and 100 μM taurine. day 38 to day 60 from the start of suspension culture; a 1:3 mixed medium of DMEM/F12 medium supplemented with 10% fetal calf serum, 1% N2 supplement, and 100 μM taurine, and Neurobasal medium supplemented with 10% fetal calf serum, 2% B27 supplement, and 100 μM taurine. after day 60 from the start of suspension culture; Neurobasal medium supplemented with 10% fetal calf serum, 2% B27 supplement, and 100 μM taurine.
# [1] Control group (FIG. 3a, f, k, p); according to the method described in Example 1, cultured without addition up to day 191 from the start of suspension culture. [2]+BMP group (FIG. 3b, g, 1, q); 0.15 nM BMP4 was added from day 22 to day 100 from the start of suspension culture and cultured up to day 191 from the start of suspension culture. From day 100 to day 191 from the start of suspension culture, cultured in medium described in Example 1. [3]+Cyclopamine-KAAD group (FIG. 3c, h, m, r); 500 nM Cyclopamine-KAAD was added from day 22 to day 100 from the start of suspension culture, and cultured up to day 191 from the start of suspension culture. From day 100 to day 191 from the start of suspension culture, cultured in medium described in Example 1. [4]+LDN193189 group (FIG. 3d, i, n, s); 100 nM LDN193189 was added from day 22 to day 100 from the start of suspension culture, and cultured up to day 191 from the start of suspension culture. From day 100 to day 191 from the start of suspension culture, cultured in medium described in Example 1. [5]+SAG group (FIG. 3e, j, o, t); 100 nM SAG was added from day 22 to day 100 from the start of suspension culture, and cultured up to day 191 from the start of suspension culture. From day 100 to day 191 from the start of suspension culture, cultured in medium described in Example 1. […]
# [2] = tested on: CYP26A1 gene; test: Quantitative PCR of CYP26A1 gene expression in retinal tissue; type: cell-based, human; conditions: about day 70, 0.15 nM BMP4 or 100 nM LDN193189 from day 22
# Protocol: [1] Control group (FIG. 2a, f, k, p); according to the method described in Example 1, culture was performed up to day 70 or day 75 from the start of suspension culture and without addition. [2]+BMP group (FIG. 2b, g, 1, q); 0.15 nM BMP4 was added from day 22 from the start of suspension culture to completion of suspension culture, and cultured up to day 70 or day 75 from the start of suspension culture. [3]+Cyclopamine-KAAD group (FIG. 2c, h, m, r); 500 nM Cyclopamine-KAAD was added from day 22 from the start of suspension culture to completion of the suspension culture, and cultured up to day 70 or day 75 from the start of suspension culture. [4]+LDN193189 group (FIG. 2d, i, n, s); 100 nM LDN193189 was added from day 22 from the start of suspension culture to completion of the suspension culture, and cultured up to day 70 or day 75 from the start of suspension culture. [5]+SAG group (FIG. 2e, j, o, t); 100 nM SAG was added from day 22 from the start of suspension culture to completion of the suspension culture, and cultured up to day 70 or day 75 from the start of suspension culture.
# On the other hand, using cDNA on about day 70 from the start of suspension culture, the expression level of CYP26A1 gene was analyzed. […]
compound,measurement,setting,value
CC1=C2C[C@H]3[C@@H](CC=C4CC(=O)CC[C@@]43C)[C@@H]2CC[C@]12O[C@@H]1C[C@H](C)CN(CCNC(=O)CCCCCNC(=O)CCc3ccccc3)[C@H]1[C@H]2C [Cyclopamine-KAAD],proportion of rod photoreceptor precursor (Rod-like; NRL-positive),[1],about 11.5%
same,proportion of cone photoreceptor precursor (Cone; RXR-γ-positive and NRL-negative),[1],about 30.2%
same,proportion of NRL-positive rod photoreceptor precursor among photoreceptor precursors versus Control group,[1]; day 191,decreased somewhat
same,CRX::Venus-positive photoreceptor precursor,"[1]; day 191, 500 nM Cyclopamine-KAAD day 22 to day 100",can be increased
same,proportion of RXR-γ-positive cone photoreceptor precursor among photoreceptor precursors versus Control group,[1]; day 191,can increase
"c1ccc2c(-c3cnn4cc(-c5ccc(N6CCNCC6)cc5)cnc34)ccnc2c1 [LDN193189, 4-[6-(4-piperazin-1-ylphenyl)pyrazolo[1,5-a]pyrimidin-3-yl]quinoline]",proportion of rod photoreceptor precursor (Rod-like; NRL-positive),[1],about 14.0%
same,proportion of cone photoreceptor precursor (Cone; RXR-γ-positive and NRL-negative),[1],about 20.0%
same,proportion of NRL-positive rod photoreceptor precursor among photoreceptor precursors versus Control group,[1]; day 191,increased
same,expression of CYP26A1 gene,[2],suppresses
BMP4: BMP protein; BMP signal transduction pathway agonist used as dorsalization signal transmitter,proportion of rod photoreceptor precursor (Rod-like; NRL-positive),[1],about 6.1%
same,proportion of cone photoreceptor precursor (Cone; RXR-γ-positive and NRL-negative),[1],about 31.3%
same,proportion of NRL-positive rod photoreceptor precursor among photoreceptor precursors versus Control group,[1]; day 191,reduced
same,expression of CYP26A1 gene,[2],promotes
CNC1CCC(N(Cc2cccc(-c3ccncc3)c2)C(=O)c2sc3ccccc3c2Cl)CC1 (centres unmarked) [SAG],proportion of rod photoreceptor precursor (Rod-like; NRL-positive),[1],about 17.2%
same,proportion of cone photoreceptor precursor (Cone; RXR-γ-positive and NRL-negative),[1],about 12.6%
same,proportion of NRL-positive rod photoreceptor precursor among photoreceptor precursors versus Control group,[1]; day 191,increased
same,proportion of RXR-γ-positive cone photoreceptor precursor among photoreceptor precursors versus Control group,[1]; day 191,low
